According to US20060069132A1, “Azolecarboxamide herbicides” (priority 2004, published 2006):

Assays:
barnyardgrass = experiment: Test B flooded paddy test; format: in vivo, Echinochloa crus-galli; details: 1000 g ai/ha, scale 0 to 100 (0 no effect, 100 complete control)
Method in brief: (§1)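 Treated at 2-leaf (paddy) or 1–4-leaf, 2–18 cm (postemergence); greenhouse 13–15 d; visual score vs control, 0 none to 100 complete control; dash = not tested.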

giant foxtail = experiment: Test B pre-/postemergence herbicide test; format: in vivo, Setaria faberi; details: for Plant response rating (0 to 100 scale), Foxtail, Giant: 0 is no effect; for Plant response rating (0 to 100 scale), Foxtail, Giant / Plant response rating, Foxtail, Giant: preemergence; for Foxtail, Giant plant response rating: postemergence; for Plant response rating, Foxtail, Giant: 0 = no effect, 100 = complete control
Method in brief: (§2)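 Greenhouse pot assay with simultaneous preemergence (treated seed) and postemergence (2–18 cm seedlings) applications of surfactant-containing, non-phytotoxic solvent formulations. Response scored visually 13–15 days later on a 0–100 scale, 100 meaning complete control.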

blackgrass = experiment: Test B postemergence herbicide test; format: in vivo, Alopecurus myosuroides; details: postemergence
Method in brief: as §1

wild oat = experiment: Test B postemergence herbicide test; format: in vivo, Avena fatua; details: postemergence
Method in brief: (§3)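 After treating 2-leaf paddy plants or 2–18 cm postemergence plants (1 to 4 leaves) with formulated chemical, researchers kept them in a greenhouse for 13–15 days. Effects were judged visually versus controls: 0 indicates none, 100 total control.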

wheat = experiment: Test B postemergence herbicide test; format: in vivo, Triticum aestivum; parameters: key to Wheat plant response rating: 0 = no effect, 100 = complete control; details: postemergence
Method in brief: as §3

velvetleaf = experiment: Test B pre-/postemergence herbicide test; format: in vivo, Abutilon theophrasti; details: for Velvetleaf plant response rating: postemergence
Method in brief: as §2

rice = experiment: Test B flooded paddy test; format: in vivo, Oryza sativa; details: 1000 g ai/ha, scale 0 to 100 (0 no effect, 100 complete control)
Method in brief: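 Greenhouse test; postemergence application to plants at 1–4 leaves (2–18 cm); paddy species at 2 leaves; evaluated visually vs controls at 13–15 days; scale 0–100 (100 = complete control).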

pigweed = experiment: Test B pre-/postemergence herbicide test; format: in vivo, Amaranthus retroflexus; details: for Plant response rating (0 to 100 scale), Pigweed: 0 is no effect; for Plant response rating (0 to 100 scale), Pigweed / Plant response rating, Pigweed: preemergence; for Pigweed plant response rating: postemergence; for Plant response rating, Pigweed: 0 = no effect, 100 = complete control
Method in brief: as §2

corn = experiment: Test B pre-/postemergence herbicide test; format: in vivo, Zea mays; details: for Plant response rating (0 to 100 scale), Corn: 0 is no effect; for Plant response rating (0 to 100 scale), Corn / Plant response rating, Corn: preemergence; for Corn plant response rating: postemergence; for Plant response rating, Corn: 0 = no effect, 100 = complete control
Method in brief: as §2

morningglory = experiment: Test B pre-/postemergence herbicide test; format: in vivo, Ipomoea coccinea; details: for Plant response rating (0 to 100 scale), Morningglory: 0 is no effect; for Plant response rating (0 to 100 scale), Morningglory / Plant response rating, Morningglory: preemergence; for Morningglory plant response rating: postemergence; for Plant response rating, Morningglory: 0 = no effect, 100 = complete control
Method in brief: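 Herbicidal effect was judged by eye on a 0–100 scale after plants stood 13 to 15 days in the greenhouse following pre- or postemergence treatment with surfactant-containing formulations.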

Surinam grass = experiment: Test B pre-/postemergence herbicide test; format: in vivo, Urochloa decumbens; details: for Plant response rating (0 to 100 scale), Surinam Grass: 0 is no effect; for Plant response rating (0 to 100 scale), Surinam Grass / Plant response rating, Surinam Grass: preemergence; for Surinam Grass plant response rating: postemergence; for Plant response rating, Surinam Grass: 0 = no effect, 100 = complete control
Method in brief: as §2

[1] = test system: small flower umbrella sedge; experiment: Test B flooded paddy test; format: in vivo, Cyperus difformis; details: 1000 g ai/ha, scale 0 to 100 (0 no effect, 100 complete control)
Method in brief: as §1

large crabgrass = experiment: Test B pre-/postemergence herbicide test; format: in vivo, Digitaria sanguinalis; details: for Plant response rating (0 to 100 scale), Crabgrass, Large: 0 is no effect; for Plant response rating (0 to 100 scale), Crabgrass, Large / Plant response rating, Crabgrass, Large: preemergence; for Crabgrass, Large plant response rating: postemergence; for Plant response rating, Crabgrass, Large: 0 = no effect, 100 = complete control
Method in brief: as §2

lambsquarters = experiment: Test B pre-/postemergence herbicide test; format: in vivo, Chenopodium album; details: for Plant response rating (0 to 100 scale), Lambsquarters: 0 is no effect; for Plant response rating (0 to 100 scale), Lambsquarters / Plant response rating, Lambsquarters: preemergence; for Lambsquarters plant response rating: postemergence; for Plant response rating, Lambsquarters: 0 = no effect, 100 = complete control
Method in brief: as §2

ducksalad = experiment: Test B flooded paddy test; format: in vivo, Heteranthera limosa; details: 1000 g ai/ha, scale 0 to 100 (0 no effect, 100 complete control)
Method in brief: as §1

[2] = 125 g ai/ha, 100 is complete control
[3] = 125 g ai/ha, visual rating, scale 0 (no effect) to 100 (complete control)
[4] = 500 g ai/ha, scale 0 to 100, 0 is no effect, 100 is complete control

SMILES: C#CCNC(=O)c1cccc(NC(=O)c2sc(C(C)(C)C)nc2CC)c1 [Compound 319]
- Barnyardgrass plant response rating (barnyardgrass): 10
- Plant response rating (0 to 100 scale), Foxtail, Giant (giant foxtail; [2]): 20
- Foxtail, Giant plant response rating (giant foxtail; [3]): 20
- Plant response rating, Foxtail, Giant (giant foxtail; 500 g ai/ha, visual rating): 50
- Foxtail, Giant plant response rating (giant foxtail; [4]): 30
- Blackgrass plant response rating (blackgrass; [3]): 0
- Blackgrass plant response rating (blackgrass; [4]): 0
- Oat, Wild plant response rating (wild oat; [3]): 20
- Oat, Wild plant response rating (wild oat; [4]): 20
- Wheat plant response rating (wheat; [3]): 10
- Wheat plant response rating (wheat; [4]): 30
- Plant response rating (0 to 100 scale), Velvetleaf (velvetleaf; 125 g ai/ha, 0 is no effect, 100 is complete control, preemergence): 0
- Velvetleaf plant response rating (velvetleaf; [3]): 10
- Plant response rating, Velvetleaf (velvetleaf; 500 g ai/ha, visual rating, 0 = no effect, 100 = complete control, preemergence): 30
- Velvetleaf plant response rating (velvetleaf; [4]): 20
- Rice plant response rating (rice): 70
- Plant response rating (0 to 100 scale), Pigweed (pigweed; [2]): 60
- Pigweed plant response rating (pigweed; [3]): 30
- Plant response rating, Pigweed (pigweed; 500 g ai/ha, visual rating): 100
- Pigweed plant response rating (pigweed; [4]): 40
- Plant response rating (0 to 100 scale), Corn (corn; [2]): 10
- Corn plant response rating (corn; [3]): 20
- Plant response rating, Corn (corn; 500 g ai/ha, visual rating): 40
- Corn plant response rating (corn; [4]): 20
- Plant response rating (0 to 100 scale), Morningglory (morningglory; [2]): 10
- Morningglory plant response rating (morningglory; [3]): 10
- Plant response rating, Morningglory (morningglory; 500 g ai/ha, visual rating): 20
- Morningglory plant response rating (morningglory; [4]): 20
- Plant response rating (0 to 100 scale), Surinam Grass (Surinam grass; [2]): 20
- Surinam Grass plant response rating (Surinam grass; [3]): 10
- Plant response rating, Surinam Grass (Surinam grass; 500 g ai/ha, visual rating): 60
- Surinam Grass plant response rating (Surinam grass; [4]): 20
- Sedge, Umbrella plant response rating [1]: 80
- Plant response rating (0 to 100 scale), Crabgrass, Large (large crabgrass; [2]): 50
- Crabgrass, Large plant response rating (large crabgrass; [3]): 20
- Plant response rating, Crabgrass, Large (large crabgrass; 500 g ai/ha, visual rating): 100
- Crabgrass, Large plant response rating (large crabgrass; [4]): 20
- Plant response rating (0 to 100 scale), Lambsquarters (lambsquarters; [2]): 20
- Lambsquarters plant response rating (lambsquarters; [3]): 50
- Plant response rating, Lambsquarters (lambsquarters; 500 g ai/ha, visual rating): 100
- Lambsquarters plant response rating (lambsquarters; [4]): 60
- Ducksalad plant response rating (ducksalad): 90

SMILES: CCn1nc(C(C)(C)C)cc1C(=O)Nc1cc(OC(F)(F)F)ccc1F [Compound 338]
- Barnyardgrass plant response rating (barnyardgrass): 40
- Plant response rating (0 to 100 scale), Foxtail, Giant (giant foxtail; [2]): 30
- Foxtail, Giant plant response rating (giant foxtail; [3]): 20
- Plant response rating, Foxtail, Giant (giant foxtail; 500 g ai/ha, visual rating): 100
- Foxtail, Giant plant response rating (giant foxtail; [4]): 30
- Blackgrass plant response rating (blackgrass; [3]): 20
- Blackgrass plant response rating (blackgrass; [4]): 40
- Oat, Wild plant response rating (wild oat; [3]): 0
- Oat, Wild plant response rating (wild oat; [4]): 40
- Wheat plant response rating (wheat; [3]): 0
- Wheat plant response rating (wheat; [4]): 10
- Velvetleaf plant response rating (velvetleaf; [3]): 20
- Velvetleaf plant response rating (velvetleaf; [4]): 50
- Rice plant response rating (rice): 30
- Plant response rating (0 to 100 scale), Pigweed (pigweed; [2]): 70
- Pigweed plant response rating (pigweed; [3]): 60
- Plant response rating, Pigweed (pigweed; 500 g ai/ha, visual rating): 100
- Pigweed plant response rating (pigweed; [4]): 80
- Plant response rating (0 to 100 scale), Corn (corn; [2]): 10
- Corn plant response rating (corn; [3]): 10
- Plant response rating, Corn (corn; 500 g ai/ha, visual rating): 10
- Corn plant response rating (corn; [4]): 20
- Plant response rating (0 to 100 scale), Morningglory (morningglory; [2]): 0
- Morningglory plant response rating (morningglory; [3]): 60
- Plant response rating, Morningglory (morningglory; 500 g ai/ha, visual rating): 10
- Morningglory plant response rating (morningglory; [4]): 100
- Plant response rating (0 to 100 scale), Surinam Grass (Surinam grass; [2]): 20
- Surinam Grass plant response rating (Surinam grass; [3]): 20
- Plant response rating, Surinam Grass (Surinam grass; 500 g ai/ha, visual rating): 60
- Surinam Grass plant response rating (Surinam grass; [4]): 40
- Sedge, Umbrella plant response rating [1]: 80
- Plant response rating (0 to 100 scale), Crabgrass, Large (large crabgrass; [2]): 80
- Crabgrass, Large plant response rating (large crabgrass; [3]): 20
- Plant response rating, Crabgrass, Large (large crabgrass; 500 g ai/ha, visual rating): 100
- Crabgrass, Large plant response rating (large crabgrass; [4]): 60
- Plant response rating (0 to 100 scale), Lambsquarters (lambsquarters; [2]): 60
- Lambsquarters plant response rating (lambsquarters; [3]): 10
- Plant response rating, Lambsquarters (lambsquarters; 500 g ai/ha, visual rating): 100
- Lambsquarters plant response rating (lambsquarters; [4]): 50
- Ducksalad plant response rating (ducksalad): 60
